{"source": "patent US20040259244A1", "about": "“Methods, compositions, and growth and differentiation factors for insulin-producing cells” (priority 2002, published 2004)", "note": "Square brackets hold non-standard residues; d marks the D form. Ends that are not written are not given here. sY = N[C@@H](Cc1ccc(OS(=O)(=O)O)cc1)C(=O)O", "data": [{"system": "conversion of stem cells into insulin producing cells", "format": "cell-based", "details": "not given", "values": [{"compound": "Cholera Toxin B Subunit", "effect on the conversion of stem cells into insulin producing cells": "potential positive effect"}]}, {"system": "conversion of stem cells into insulin producing cells", "format": "cell-based", "details": "statistical analysis of insulin content of supernatants, 3 donors, combinatorial array in alginate", "values": [{"compound": "CC[C@H](C)[C@@H]1NC(=O)[C@H](CCCNC(=N)N)NC(=O)[C@H](CC(=O)O)NC(=O)[C@H](CCSC)NC(=O)[C@H](CCCNC(=N)N)NC(=O)CNC(=O)CNC(=O)[C@H](Cc2ccccc2)NC(=O)[C@@H](NC(=O)[C@H](CO)NC(=O)[C@H](CO)NC(=O)[C@H](CCCNC(=N)N)NC(=O)[C@H](CCCNC(=N)N)NC(=O)[C@H](CC(C)C)NC(=O)[C@@H](N)CO)CSSC[C@@H](C(=O)N[C@@H](CC(N)=O)C(=O)N[C@@H](CO)C(=O)N[C@@H](Cc2ccccc2)C(=O)N[C@@H](CCCNC(=N)N)C(=O)N[C@@H](Cc2ccc(O)cc2)C(=O)O)NC(=O)CNC(=O)[C@H](CC(C)C)NC(=O)CNC(=O)[C@H](CO)NC(=O)[C@H](CCC(N)=O)NC(=O)[C@H](C)NC(=O)CNC1=O", "note": "[ANP]", "effect on the conversion of stem cells into insulin producing cells": "potential negative effect"}, {"compound": "C[C@]12C[C@H](O)[C@H]3[C@@H](CCC4=CC(=O)CC[C@@]43C)[C@@H]1CC[C@@H]2C(=O)CO", "note": "[Corticosterone]", "effect on the conversion of stem cells into insulin producing cells": "potential positive effect"}, {"compound": "CCCCCC(=O)c1c(O)c(Cl)c(OC)c(Cl)c1O", "note": "[DIF-1]", "effect on the conversion of stem cells into insulin producing cells": "potential negative effect"}, {"compound": "CN(C)C=O", "note": "[DMF, n-n-dimethylformamide]", "effect on the conversion of stem cells into insulin producing cells": "potential positive effect"}, {"compound": "C[S+](C)[O-]", "note": "[DMSO, dimethyl sulfoxide]", "effect on the conversion of stem cells into insulin producing cells": "potential positive effect"}, {"compound": "NC(=O)c1cccnc1", "note": "[Nictotinamide, Nicotinamide]", "effect on the conversion of stem cells into insulin producing cells": "potential positive effect"}, {"compound": "CC(=O)[C@H]1CC[C@H]2[C@@H]3CCC4=CC(=O)CC[C@]4(C)[C@H]3CC[C@]12C", "note": "[Progesterone]", "effect on the conversion of stem cells into insulin producing cells": "potential negative effect"}, {"compound": "NCCCCN", "note": "[Putrescine]", "effect on the conversion of stem cells into insulin producing cells": "potential negative effect"}, {"compound": "N[C@@H](Cc1cc(I)c(Oc2ccc(O)c(I)c2)c(I)c1)C(=O)O", "note": "[T3, Triiodothyronine]", "effect on the conversion of stem cells into insulin producing cells": "potential negative effect"}, {"compound": "Cc1c(C)c2c(c(C)c1O)CCC(C)(C(=O)O)O2", "note": "(stereo not drawn) [Trolox]", "effect on the conversion of stem cells into insulin producing cells": "potential negative effect"}, {"compound": "CCCC(=O)[O-].[Na+]", "note": "[n Butyric Acid]", "effect on the conversion of stem cells into insulin producing cells": "potential negative effect"}, {"compound": "CCK8 amide: Cholecystokinin (CCK8-amide) (DYMGWMDF-NH2; ends and bridges not checked; UniProt P06307 96-103, looked up)", "effect on the conversion of stem cells into insulin producing cells": "potential negative effect"}, {"compound": "CCK8 sulfated: Cholecystokinin octapeptide, sulfated (D[sY]MGWMDF-NH2; ends and bridges not checked; UniProt P06307 96-103, looked up)", "effect on the conversion of stem cells into insulin producing cells": "potential positive effect"}, {"compound": "CNP: A 22-amino acid peptide that is a member of the natriuretic peptide family (GLSKGCFGLKLDRIGSMSGLGC; ends and bridges not checked; cysteine pairing not given here; UniProt P23582 105-126, looked up)", "effect on the conversion of stem cells into insulin producing cells": "potential positive effect"}, {"compound": "Caerulein", "effect on the conversion of stem cells into insulin producing cells": "potential positive effect"}, {"compound": "EGF: epidermal growth factor (NSDSECPLSHDGYCLHDGVCMYIEALDKYACNCVVGYIGERCQYRDLKWWELR; UniProt P01133 971-1023, looked up)", "effect on the conversion of stem cells into insulin producing cells": "potential positive effect"}, {"compound": "Endothelin 1: polypeptide consisting of 21 amino acid residues (CSCSSLMDKECVYFCHLDIIW; ends and bridges not checked; cysteine pairing not given here; UniProt P05305 53-73, looked up)", "effect on the conversion of stem cells into insulin producing cells": "potential negative effect"}, {"compound": "Exendin 4: a long acting analog of GLP-1", "effect on the conversion of stem cells into insulin producing cells": "potential positive effect"}, {"compound": "FGF-1: FGF acidic", "effect on the conversion of stem cells into insulin producing cells": "potential positive effect"}, {"compound": "FGF-2: fibroblast growth factor 2 (FGF-basic)", "effect on the conversion of stem cells into insulin producing cells": "potential negative effect"}, {"compound": "GH: growth hormone", "effect on the conversion of stem cells into insulin producing cells": "potential negative effect"}, {"compound": "GLP-1: Glucagon like-peptide 1, (7-36) amide, human (HAEGTFTSDVSSYLEGQAAKEFIAWLVKGR-NH2; UniProt P01275 98-127, looked up)", "effect on the conversion of stem cells into insulin producing cells": "potential negative effect"}, {"compound": "GRP: Gastrin Releasing Peptide (VPLPAGGGTVLTKMYPRGNHWAVGHLM; ends and bridges not checked; UniProt P07492 24-50, looked up)", "effect on the conversion of stem cells into insulin producing cells": "potential positive effect"}, {"compound": "HGF: hepatocyte growth factor", "effect on the conversion of stem cells into insulin producing cells": "potential negative effect"}, {"compound": "IGF-1: Insulin-like growth factor-I", "effect on the conversion of stem cells into insulin producing cells": "potential positive effect"}, {"compound": "IGF-2: Insulin-like growth factor 2", "effect on the conversion of stem cells into insulin producing cells": "potential positive effect"}, {"compound": "Insulin: Insulin as medium supplement", "effect on the conversion of stem cells into insulin producing cells": "potential positive effect"}, {"compound": "LIF: leukemia inhibitory factor, human", "effect on the conversion of stem cells into insulin producing cells": "potential negative effect"}, {"compound": "Laminin", "effect on the conversion of stem cells into insulin producing cells": "potential positive effect"}, {"compound": "Leu-Enkephalin: Natural opiate pentapeptide (YGGFL) (Leu-enkephalin; UniProt P01210 230-234, looked up)", "effect on the conversion of stem cells into insulin producing cells": "potential positive effect"}, {"compound": "Met-Enkephalin", "effect on the conversion of stem cells into insulin producing cells": "potential positive effect"}, {"compound": "NGF beta: Nerve growth factor", "effect on the conversion of stem cells into insulin producing cells": "potential positive effect"}, {"compound": "Substance P: neuropeptide, full length (RPKPQQFFGLM; ends and bridges not checked; UniProt P20366 58-68, looked up)", "effect on the conversion of stem cells into insulin producing cells": "potential positive effect"}, {"compound": "TGF alpha: Transforming growth factor alpha", "effect on the conversion of stem cells into insulin producing cells": "potential negative effect"}, {"compound": "TGF beta 1: Transforming growth factor beta 1", "effect on the conversion of stem cells into insulin producing cells": "potential negative effect"}, {"compound": "Transferrin: a beta globulin in blood plasma capable of combining with ferric ions", "effect on the conversion of stem cells into insulin producing cells": "potential positive effect"}, {"compound": "VIP: Vasoactive Intestinal Peptide (HSDAVFTDNYTRLRKQMAVKKYLNSILN; ends and bridges not checked; UniProt P01282 125-152, looked up)", "effect on the conversion of stem cells into insulin producing cells": "potential positive effect"}, {"compound": "vEGF", "effect on the conversion of stem cells into insulin producing cells": "potential positive effect"}]}]}
